Assay results published in US20250115569A1, “SULFONAMIDE COMPOUNDS FOR THE TREATMENT OF NEUROLOGICAL CONDITIONS” (LARIO THERAPEUTICS LIMITED, priority 2021, published 2025).

Columns and labels:
Cav2.3 [1] = target: T1, Cav2.3 (Homo sapiens, UniProt Q15878); assay: Whole-cell patch clamp assay (QPatch) in HEK-293 T-Rex/Kir2.1/Cav2.3e-β4-α2δ1 cells; type: cell-based; details: QPatch 16X, room temperature, mean ± S.E, read-out: Cav2.3 (pIC50) (converted)
Description: HEK-293 T-Rex/Kir2.1/Cav2.3e-β4-α2δ1 cells were seeded 96 hours before experiment and doxycycline at 0.2 μg/mL was added 24 hours before experiment. Just before the experiments cells were washed twice with D-PBS w/o Ca^2+/Mg^2+ and gently detached from the flask with Detachin. Cells were then re-suspended in the suspension solution (25 mL EX-CELL ACF CHO medium; 0.25 mL of 100× Penicillin/Streptomycin) and placed on the Automated Patch-clamp platform (QPatch 16X).
Standard whole-cell voltage clamp experiments were performed at room temperature using the single hole technology and the following intracellular and extracellular solutions (ICS and ECS, respectively) were used. ICS (mM): CsF 60, CsCl 50, NaCl 10, EGTA 20, BAPTA 5, HEPES 10, NaGTP 0.3, MgATP 5 (pH 7.2; ECS (mM): NMDG-Cl 120, BaCl2 20, HEPES 10, EGTA 7 (pH 7.4). After establishment of the seal and the passage in the whole-cell configuration, the Cav2.3 dependent current was evoked by challenging the cells with the following voltage protocol: the plasma membrane was held at −80 mV then a 50 ms-long depolarizing pulse at 0 mV, followed by a 50 ms-long hyperpolarizing pulse at −100 mV were applied and finally the plasma membrane was held back to −80 mV. This voltage protocol was applied every 10 seconds. Cav2.3 dependent current was first measured in control condition (vehicle, 0.1% DMSO), in the presence of increasing concentration of the compound under investigation and finally SNX 482 was added to fully block any R-type Cav2.3 dependent current.
For data collection, the Sophion proprietary software was used while the analysis was performed off-line using Excel and GraphPad Prism. The inward current (Area Under Curve) measured during each depolarizing pulse was normalized to cell membrane capacitance (Cm) to obtain the average inward current density in each condition (control, compound under investigation and SNX 482). Then, the inhibitory effect of the compound under investigation was evaluated as % of the remaining inward current, normalized to the internal control. […] All data were expressed as mean±S.E

[2] = target: R-type calcium current in substantia nigra dopamine neurons (Mus musculus (Mouse), UniProt Q61290); assay: Ex vivo whole cell patch clamp in substantia nigra dopamine neurons, mouse brain slice; type: cell-based; details: concentrations of 10 μM
Description: Compounds of the invention were tested on R-type calcium current with whole cell patch clamp electrophysiology in substantia nigra dopamine neurons in an ex vivo brain slice preparation according to the methods described in Siller et al., Elife, 11:e67464 (2022) https://doi.org/i0.7554/eLife.67464.

Human Cav2.3 channel = Human Cav2.3 channel calcium-influx assay; type: cell-based; details: Fluo8 fluorescence, HEK-293 T-Rex/Kir2.1/Cav2.3e cells, without pluronic acid
In short: (§1)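 HEK-293 T-Rex/Kir2.1 cells with doxycycline (0.2 μg/mL)-inducible Cav2.3e plus Cavβ4-α2δ1, loaded with Fluo8 NW in 0 mM K+ Tyrode's. Compounds (8 points, top 30 μM, half-log, 0.3% final DMSO, n=4) preincubated 3 min at RT, then depolarized with 20 mM KCl/2 mM CaCl2 (final); fluorescence read 130 s.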

MES model of epilepsy = assay: Maximal electroshock stimulation model (MES) in mouse; type: in vivo; details: 1.5 mg/kg, oral administration
Description: Compounds of the invention were tested in an in vivo model of epilepsy, the MES model in mouse, according to the method described in Kehne et al, Neurochemistry Research 42:1894-1903 (2017) 1 https://doi.org/10.1007/s11064-017-2275-z.

Cav2.3 [3] = target: T1, Cav2.3; assay: Human Cav2.3 channel calcium-influx assay; type: cell-based; details: Fluo8 fluorescence, HEK-293 T-Rex/Kir2.1/Cav2.3e cells, without pluronic acid, read-out: Cav2.3 (pIC50) (converted)
In short: as §1

T1 sequence (Q15878 whole entry, looked up): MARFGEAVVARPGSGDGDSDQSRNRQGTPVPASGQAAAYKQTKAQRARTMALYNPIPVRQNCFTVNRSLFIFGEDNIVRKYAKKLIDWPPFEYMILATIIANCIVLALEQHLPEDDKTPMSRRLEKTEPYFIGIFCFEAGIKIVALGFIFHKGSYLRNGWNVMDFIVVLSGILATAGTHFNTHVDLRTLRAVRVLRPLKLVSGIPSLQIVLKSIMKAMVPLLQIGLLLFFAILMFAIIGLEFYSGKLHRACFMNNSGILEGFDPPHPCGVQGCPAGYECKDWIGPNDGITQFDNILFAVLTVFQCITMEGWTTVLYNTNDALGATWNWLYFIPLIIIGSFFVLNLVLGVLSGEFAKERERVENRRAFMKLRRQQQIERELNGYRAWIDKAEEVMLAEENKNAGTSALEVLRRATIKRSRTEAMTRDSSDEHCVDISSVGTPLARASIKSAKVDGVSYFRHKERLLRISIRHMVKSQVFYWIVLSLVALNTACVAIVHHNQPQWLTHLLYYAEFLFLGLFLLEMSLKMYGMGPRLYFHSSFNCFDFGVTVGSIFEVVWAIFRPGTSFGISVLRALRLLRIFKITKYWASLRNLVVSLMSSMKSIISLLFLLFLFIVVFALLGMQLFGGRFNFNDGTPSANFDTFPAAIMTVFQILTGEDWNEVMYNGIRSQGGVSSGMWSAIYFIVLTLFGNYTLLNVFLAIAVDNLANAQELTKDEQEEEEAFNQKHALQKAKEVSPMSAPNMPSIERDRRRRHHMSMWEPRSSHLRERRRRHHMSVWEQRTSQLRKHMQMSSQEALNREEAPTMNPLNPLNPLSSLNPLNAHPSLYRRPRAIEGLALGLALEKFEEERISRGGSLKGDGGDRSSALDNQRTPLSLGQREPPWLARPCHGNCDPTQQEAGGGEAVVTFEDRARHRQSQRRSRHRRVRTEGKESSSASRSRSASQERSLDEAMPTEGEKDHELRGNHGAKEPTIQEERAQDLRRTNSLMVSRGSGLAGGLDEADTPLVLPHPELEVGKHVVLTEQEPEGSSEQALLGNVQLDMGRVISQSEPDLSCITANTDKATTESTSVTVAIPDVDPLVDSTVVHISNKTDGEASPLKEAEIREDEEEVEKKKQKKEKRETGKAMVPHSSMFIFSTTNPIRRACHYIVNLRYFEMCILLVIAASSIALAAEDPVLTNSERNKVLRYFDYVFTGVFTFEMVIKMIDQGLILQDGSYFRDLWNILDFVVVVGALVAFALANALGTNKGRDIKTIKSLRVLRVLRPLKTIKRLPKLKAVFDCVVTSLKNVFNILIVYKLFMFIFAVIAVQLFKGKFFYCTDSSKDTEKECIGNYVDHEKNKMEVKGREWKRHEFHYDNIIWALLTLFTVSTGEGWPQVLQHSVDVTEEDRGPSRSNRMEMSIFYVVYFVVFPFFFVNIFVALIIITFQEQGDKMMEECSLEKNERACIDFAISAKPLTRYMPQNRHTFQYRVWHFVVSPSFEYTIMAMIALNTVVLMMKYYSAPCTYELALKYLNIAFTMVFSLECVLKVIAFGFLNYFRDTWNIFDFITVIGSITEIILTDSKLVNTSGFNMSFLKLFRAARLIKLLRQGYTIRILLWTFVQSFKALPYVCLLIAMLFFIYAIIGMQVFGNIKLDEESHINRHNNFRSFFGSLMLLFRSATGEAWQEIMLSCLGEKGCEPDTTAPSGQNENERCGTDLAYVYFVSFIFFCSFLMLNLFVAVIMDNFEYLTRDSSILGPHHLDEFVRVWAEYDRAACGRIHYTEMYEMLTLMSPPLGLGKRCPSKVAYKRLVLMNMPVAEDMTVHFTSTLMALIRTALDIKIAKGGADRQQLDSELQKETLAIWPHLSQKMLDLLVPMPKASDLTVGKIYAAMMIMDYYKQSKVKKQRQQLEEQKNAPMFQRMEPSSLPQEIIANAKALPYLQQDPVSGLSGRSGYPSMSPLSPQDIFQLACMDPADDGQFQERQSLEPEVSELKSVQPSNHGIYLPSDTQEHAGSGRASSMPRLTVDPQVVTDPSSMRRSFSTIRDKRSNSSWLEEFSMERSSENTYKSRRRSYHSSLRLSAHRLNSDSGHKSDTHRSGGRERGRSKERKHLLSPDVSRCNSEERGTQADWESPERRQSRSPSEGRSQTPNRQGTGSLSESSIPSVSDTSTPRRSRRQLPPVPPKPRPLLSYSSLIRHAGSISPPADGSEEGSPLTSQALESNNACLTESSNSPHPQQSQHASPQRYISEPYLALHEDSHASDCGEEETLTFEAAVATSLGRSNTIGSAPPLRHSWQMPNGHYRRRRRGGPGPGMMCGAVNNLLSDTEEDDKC
Chain of R-type calcium current in substantia nigra dopamine neurons (Q61290 whole entry): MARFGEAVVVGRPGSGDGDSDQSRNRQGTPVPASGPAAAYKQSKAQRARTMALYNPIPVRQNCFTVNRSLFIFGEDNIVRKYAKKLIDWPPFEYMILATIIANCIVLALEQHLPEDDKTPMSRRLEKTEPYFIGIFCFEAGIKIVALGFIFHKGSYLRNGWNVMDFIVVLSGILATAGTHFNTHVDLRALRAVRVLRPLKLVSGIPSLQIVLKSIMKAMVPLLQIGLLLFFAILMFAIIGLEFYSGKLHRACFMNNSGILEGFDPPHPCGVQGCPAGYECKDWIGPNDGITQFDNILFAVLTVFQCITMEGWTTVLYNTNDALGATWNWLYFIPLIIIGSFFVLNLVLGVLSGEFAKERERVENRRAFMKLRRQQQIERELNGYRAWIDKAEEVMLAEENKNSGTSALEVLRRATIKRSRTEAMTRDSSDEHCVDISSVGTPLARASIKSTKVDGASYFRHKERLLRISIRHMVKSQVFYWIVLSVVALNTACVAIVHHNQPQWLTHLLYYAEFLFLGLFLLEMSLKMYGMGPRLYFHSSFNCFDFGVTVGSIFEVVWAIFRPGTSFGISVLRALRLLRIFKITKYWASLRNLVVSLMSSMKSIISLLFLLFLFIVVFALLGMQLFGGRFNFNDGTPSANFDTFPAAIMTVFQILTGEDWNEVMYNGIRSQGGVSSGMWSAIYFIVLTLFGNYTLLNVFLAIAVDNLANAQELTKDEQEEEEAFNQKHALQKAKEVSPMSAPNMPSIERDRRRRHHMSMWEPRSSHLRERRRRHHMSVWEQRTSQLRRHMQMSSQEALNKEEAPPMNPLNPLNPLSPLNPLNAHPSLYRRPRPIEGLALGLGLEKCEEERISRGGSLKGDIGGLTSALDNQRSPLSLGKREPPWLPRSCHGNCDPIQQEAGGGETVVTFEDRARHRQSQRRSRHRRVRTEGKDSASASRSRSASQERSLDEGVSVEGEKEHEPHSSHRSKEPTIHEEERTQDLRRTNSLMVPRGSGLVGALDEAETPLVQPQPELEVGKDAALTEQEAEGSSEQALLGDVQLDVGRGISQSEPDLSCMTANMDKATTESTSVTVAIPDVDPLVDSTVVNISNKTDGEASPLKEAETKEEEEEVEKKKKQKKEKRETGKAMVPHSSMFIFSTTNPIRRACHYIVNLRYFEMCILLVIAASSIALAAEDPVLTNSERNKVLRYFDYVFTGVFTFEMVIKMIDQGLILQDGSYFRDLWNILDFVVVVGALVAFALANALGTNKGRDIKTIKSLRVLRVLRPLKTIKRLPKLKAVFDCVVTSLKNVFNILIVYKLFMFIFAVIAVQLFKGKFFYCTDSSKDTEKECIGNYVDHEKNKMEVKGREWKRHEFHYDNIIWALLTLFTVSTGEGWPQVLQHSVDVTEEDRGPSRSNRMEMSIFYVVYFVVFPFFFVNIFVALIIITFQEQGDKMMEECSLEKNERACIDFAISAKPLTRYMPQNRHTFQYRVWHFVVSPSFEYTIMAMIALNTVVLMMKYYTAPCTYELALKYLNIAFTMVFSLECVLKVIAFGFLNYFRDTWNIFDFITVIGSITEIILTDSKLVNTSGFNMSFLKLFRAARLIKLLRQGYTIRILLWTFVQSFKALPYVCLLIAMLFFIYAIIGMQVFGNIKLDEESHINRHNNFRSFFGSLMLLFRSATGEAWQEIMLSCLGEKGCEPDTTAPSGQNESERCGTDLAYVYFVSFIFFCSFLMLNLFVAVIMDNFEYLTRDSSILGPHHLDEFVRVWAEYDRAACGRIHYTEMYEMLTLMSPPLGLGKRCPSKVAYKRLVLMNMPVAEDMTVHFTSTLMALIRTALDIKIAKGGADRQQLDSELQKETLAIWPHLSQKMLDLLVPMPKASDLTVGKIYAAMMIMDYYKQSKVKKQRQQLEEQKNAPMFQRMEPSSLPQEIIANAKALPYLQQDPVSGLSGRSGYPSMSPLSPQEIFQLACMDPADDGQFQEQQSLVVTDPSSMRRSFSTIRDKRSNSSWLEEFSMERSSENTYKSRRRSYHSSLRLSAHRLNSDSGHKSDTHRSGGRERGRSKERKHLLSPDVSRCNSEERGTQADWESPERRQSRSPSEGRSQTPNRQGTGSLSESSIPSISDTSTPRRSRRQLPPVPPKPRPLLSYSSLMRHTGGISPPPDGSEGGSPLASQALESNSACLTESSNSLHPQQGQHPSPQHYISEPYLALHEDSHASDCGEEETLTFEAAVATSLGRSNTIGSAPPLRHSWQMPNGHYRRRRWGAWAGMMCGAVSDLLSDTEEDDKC

| IC50 (Cav2.3 [1]) | activity blocking R-type calcium current [2] | Cav2.3 (pIC50) (Human Cav2.3 channel) | IC50 (Cav2.3 [3]) | SMILES | activity in the MES model (MES model of epilepsy) |
| --- | --- | --- | --- | --- | --- |
| 46.8 nM | active | 7.87 |  | CCN([C@H](c1ccc(F)cc1)C(F)(F)F)S(=O)(=O)c1cncc(C#N)c1 [Example 35, (R)-5-cyano-N-ethyl-N-(2,2,2-trifluoro-1-(4-fluorophenyl)ethyl)pyridine-3-sulfonamide] | active |
| 457 nM |  |  | 145 nM | CN([C@H](c1ccc(Cl)cc1)C(F)(F)F)S(=O)(=O)c1ccn2ncnc2c1 [Example 191, (R)—N-(1-(4-chlorophenyl)-2,2,2-trifluoroethyl)-N-methyl-[1,2,4]triazolo[1,5-a]pyridine-7-sulfonamide] |  |
| 141 nM |  |  | 30.2 nM | CN([C@H](c1ccc(Cl)cc1)C(F)(F)F)S(=O)(=O)c1cncc(F)c1 [Example 220, (R)—N-(1-(4-chlorophenyl)-2,2,2-trifluoroethyl)-5-fluoro-N-methylpyridine-3-sulfonamide] |  |
